From patent US8420644B2, “Pharmaceutical composition intended for the prevention or for the treatment of cerebral oedemas” (Biocodex, priority 2005, dated 2013)
Where two headings read alike, the source gives them in different places.

How the values were obtained:
[1] = test system: cerebral edema induced triethyltin (TET) chloride; conditions: administered during the intoxication, measured after 5 days (Linee et al., 1984); cited from earlier work
[2] = test system: cerebral oedema induced by triethyltin (TET); conditions: rat, in vivo
[3] = type: in vivo, rat
[4] = test system: ambulatory activity disrupted by triethyltin (TET); conditions: for Ambulatory activities: no TET
[5] = moclobemide 2×100 mg/kg/day + TET
[6] = moclobemide 2 × 100 mg/kg/day + TET 3 mg/kg/day, day 4
[7] = moclobemide 2 × 50 mg/kg/day + TET 3 mg/kg/day, day 4
[8] = moclobemide 2 × 50 mg/kg/day + TET 3 mg/kg/day, day −3, before any treatment
[9] = moclobemide 2 × 50 mg/kg/day, TET 0, day 4
[10] = moclobemide 2 × 50 mg/kg/day, TET 0, day −3, before any treatment
[11] = moclobemide 2 × 100 mg/kg/day + TET 3 mg/kg/day, day −3, before any treatment

For (−)eburnamonine, the “Activity in the preventive protocol of intoxication with tin” value (shortened to “Activity in the preventive protocol”) [1] is listed as “active”.

For `CC[C@]12CCCN3CCc4c(n(c5ccccc45)[C@@](O)(C(=O)OC)C1)[C@@H]32` [vincamine], the “Activity in the preventive protocol” value [1] is given as “active”.

With moclobemide the Variation in percentage ([2]; 50 mg/kg/day) was −0.01%, the Variation in percentage ([2]; 100 mg/kg/day) was −0.14% and the “Body weight (grammes ± esm)” value ([3]; moclobemide 2 × 50 mg/kg/day + TET 3 mg/kg/day, day 0) was 245 ± 3 grammes. The “Body weight (grammes ± esm)” value ([3]; moclobemide 2 × 50 mg/kg/day + TET 3 mg/kg/day, day 1) was 246 ± 3 grammes, the “Body weight (grammes ± esm)” value ([3]; moclobemide 2 × 50 mg/kg/day + TET 3 mg/kg/day, day 2) was 249 ± 3 grammes and the “Body weight (grammes ± esm)” value ([3]; moclobemide 2 × 50 mg/kg/day + TET 3 mg/kg/day, day 3) was 253 ± 4 grammes. The “Body weight (grammes ± esm)” value ([3]; moclobemide 2 × 50 mg/kg/day + TET 3 mg/kg/day, day −3) was 216 ± 3 grammes, the “Drop in weight between day 3 and day 4 induced by the TET” value [3, 5] was “prevents the drop in weight induced by the TET” and the “Body weight (grammes ± esm)” value ([3]; moclobemide 2 × 100 mg/kg/day + TET 3 mg/kg/day, day 0) was 243 ± 4 grammes. The “Body weight (grammes ± esm)” value ([3]; moclobemide 2 × 100 mg/kg/day + TET 3 mg/kg/day, day 2) was 244 ± 4 grammes, the “Body weight (grammes ± esm)” value ([3]; moclobemide 2 × 100 mg/kg/day + TET 3 mg/kg/day, day 3) was 244 ± 4 grammes and the “Body weight (grammes ± esm)” value [3, 6] was 241 ± 5 grammes. For the same molecule, the “Body weight (grammes ± esm)” value ([3]; moclobemide 2 × 100 mg/kg/day + TET 3 mg/kg/day, day −3) was 203 ± 5 grammes, the “Effect of TET on the ambulatory activities” value ([4]; moclobemide 2×50 mg/kg/day + TET) was “does not suppress the effect of TET” and the “Horizontal ambulatory activity (means ± esm)” value (shortened to “Horizontal ambulatory activity”) [4, 7] was 474 ± 70 arbitrary unit. The “Total ambulatory activity (means ± esm)” value [4, 7] was 844 ± 88 arbitrary unit, the “Horizontal ambulatory activity” value [4, 8] was 2319 ± 248 arbitrary unit and the “Total ambulatory activity (means ± esm)” value [4, 8] was 3001 ± 314 arbitrary unit. The “Vertical ambulatory activity (means ± esm)” value [4, 8] was 279 ± 37 arbitrary unit, the Ambulatory activities ([4]; moclobemide 2×50 mg/kg/day for 5 days) was “does not lead to any significant effect on the ambulatory activities” and the “Horizontal ambulatory activity” value [4, 9] was 1483 ± 163 arbitrary unit. For the same molecule, the “Total ambulatory activity (means ± esm)” value [4, 9] was 2000 ± 224 arbitrary unit, the “Horizontal ambulatory activity” value [4, 10] was 2754 ± 415 arbitrary unit and the “Total ambulatory activity (means ± esm)” value [4, 10] was 3840 ± 323 arbitrary unit. The “Effect of TET on the ambulatory activities” value [4, 5] was “does not suppress the effect of TET”, the “Horizontal ambulatory activity” value [4, 6] was 497 ± 139 arbitrary unit and the “Horizontal ambulatory activity” value [4, 11] was 2549 ± 221 arbitrary unit. For the same molecule, the “Total ambulatory activity (means ± esm)” value [4, 11] was 3332 ± 235 arbitrary unit, the “Vertical ambulatory activity (means ± esm)” value [4, 11] was 279 ± 27 arbitrary unit and the Ambulatory activities ([4]; moclobemide 2×100 mg/kg/day, day 4) was “significantly decreases the ambulatory activities at day 4”.

In the case of dihydroergotoxin, the “Activity in the preventive protocol” value [1] is listed as “active”.
